Several values for one entry are separate records, joined by “and”; a condition that tells them apart may be missing. Identical values can stand only once. Entries after “also recorded” stand apart in the source; their conditions may differ.
What was measured:
[1] = system: TNF-α production; set-up: method as in PMID 11278990; conditions: cited from earlier work
[2] = system: HCT-116 (colorectal); experiment: Alamar Blue assay, tumoral cells HCT-116; format: cell-based; conditions: 72 h, 20 µmol/L
Method: (§1) We also investigated possible cytotoxic effects on tumor cell lines (Table 1). To characterize this activity, the compounds were tested in different tumor cell lines, among which were AGP-01 (gastric), HCT116 (colorectal), MCF07 (breast cancer), NIHOVCAR (ovary), SKAMELL-4 (melanoma), and SF-295 (human glioblastoma), each at a concentration of 20 µM.
(§2) Cytotoxicity assay. The cytotoxicity of diterpene compounds to the murine macrophage cell line J774 was determined by the Alamar Blue method as described by Nakayama et al.. Briefly, adherent cells (5 × 10^3 cells/well) were grown in 96-well tissue culture plates and exposed to substances (2.5 to 10 µg/mL) for 24, 48 and 72 h. After incubation, the Alamar Blue solution (10 μL of 0.4% Alamar Blue (resazurin) in PBS) was added and the cells were incubated for 3 h at 37 °C. Fluorescence was measured (excitation at 545 nm and emission at 595 nm) and expressed as a percentage of the cells in the control after background fluorescence was subtracted. As a positive control of cell death, doxorubicin (5 µg/mL) was used. The assays were performed in triplicate. For the assays with tumoral cells, an Alamar Blue assay was performed using the following cell lines: AGP01—gastric; HCT116—colorectal; MCF07—breast cancer; NIHOVCAR—ovary; SKAMELL4—melanoma; SF295—human glioblastoma, which were seeded in 96-well plates (0.5 × 10^4 cells per well) and incubated in a CO2 atmosphere at 5% and 37 °C. After 24 h, diterpenes at 20 µM were added to each well and incubated for 72 h. Doxorubicin (10 μM) was used as a positive control and DMSO (0.1%) as a negative control. Before the end of the incubation, 10 µL of Alamar Blue (0.02%) was added to each well. The fluorescent signal was monitored using a multiplate reader using a 530–560 nm excitation wavelength and 590 nm emission wavelength. The fluorescent signal generated from the assay was proportional to the number of live cells in the sample, according to the manufacturer.

[3] = system: MCF7 (breast cancer); experiment: Alamar Blue assay, tumoral cells MCF7; format: cell-based; conditions: 72 h, 20 µmol/L
Method: as §1, §2

[4] = system: AGP01 (gastric); experiment: Alamar Blue assay, tumoral cells AGP01; format: cell-based; conditions: 72 h, 20 µmol/L
Method: as §1, §2

[5] = system: NIHOVCAR (ovary); experiment: Alamar Blue assay, tumoral cells NIHOVCAR; format: cell-based; conditions: 72 h, 20 µmol/L
Method: as §1, §2

[6] = system: SF295 (human glioblastoma); experiment: Alamar Blue assay, tumoral cells SF295; format: cell-based; conditions: 72 h, 20 µmol/L
Method: as §1, §2

[7] = system: nitric oxide production in J774 macrophages stimulated with LPS; experiment: NO production assay (Griess) in LPS-stimulated J774 cells; format: cell-based, murine; conditions: Mus musculus; for IC50: J774, LPS 1 µg/mL, 24 h, read-out: inhibition of NO production IC50
Method: Our study evaluated the effects of diterpene compounds on the production of nitric oxide in the murine macrophage cell line J774 stimulated with LPS (Figure 2D). NO^• levels were measured by the Greiss method. […] Similar results for kaurenoic acid were observed by Choi et al. […] Figure 2 Effect of the isolated diterpenic acids on nitric oxide (NO^•) and cytokine production in lipopolysaccharide-stimulated J774 cells. (A) TNF-α, (B) IL-6 and (C) IL-10 and (D) NO^•. […] The nitrite and cytokines values are the mean ± S.D. from three independent experiments. Indomethacin was used as a standard. Statistical analysis was performed using the Holm-Sidak multiple comparison. * p < 0.05 when compared to control stimulated with LPS. (1) 3-hydroxy-copalic acid, (2) kaurenoic acid, (3) 3-acetoxy-copalic acid, (4) kolavic acid 15-methyl ester, (5) copalic acid and (6) […]. NO^• production by J774 cells was assayed by measuring the accumulation of nitrite in the culture medium using a Griess reaction. Briefly, after incubation of the cells (1 × 10^6 cells/mL) with diterpene compounds in different concentrations from 6.25 to 100 μM, cells were incubated for 24 h with LPS (1 μg/mL), at 37 °C in a 5% CO2 incubator. Nitric oxide was measured as NO2 in culture supernatant by reaction with Griess reagent. Absorbance of the reaction product was determined at 560 nm using a microplate reader (DTX 800, Beckman). Sodium nitrite was used as a standard to calculate nitrite concentrations.

[8] = system: IL-6 production; experiment: IL-6 production in LPS-stimulated J774 cells (CBA); format: cell-based, murine; conditions: for inhibition of IL-6 production (words): LPS-stimulated J774; for inhibition at 25 µM: Mus musculus, J774, 25 µM (abstract)
Method: Figure 2 Effect of the isolated diterpenic acids on nitric oxide (NO^•) and cytokine production in lipopolysaccharide-stimulated J774 cells. (A) TNF-α, (B) IL-6 and (C) IL-10 and (D) NO^•. […] The nitrite and cytokines values are the mean ± S.D. from three independent experiments. Indomethacin was used as a standard. Statistical analysis was performed using the Holm-Sidak multiple comparison. * p < 0.05 when compared to control stimulated with LPS. (1) 3-hydroxy-copalic acid, (2) kaurenoic acid, (3) 3-acetoxy-copalic acid, (4) kolavic acid 15-methyl ester, (5) copalic acid and (6) hardwickiic acid.
[…] The culture supernatants were collected after 24 h of LPS stimulation. The levels of cytokines in the culture media were measured by flow cytometry (BD Cytometric Bead Array—CBA—Mouse Inflammation kit) according to the manufacturer’s instructions.

[9] = system: IL-10 production; experiment: IL-10 production in LPS-stimulated J774 cells (CBA); format: cell-based, murine
Method: Figure 2 Effect of the isolated diterpenic acids on nitric oxide (NO^•) and cytokine production in lipopolysaccharide-stimulated J774 cells. (A) TNF-α, (B) IL-6 and (C) IL-10 and (D) NO^•. Production of NO^• was assayed in culture supernatants of macrophages stimulated with LPS (1 µg/mL) for 24 h in the presence of the four compounds (25 µg/mL to cytokines and 50 µg/mL to NO^•). The nitrite and cytokines values are the mean ± S.D. from three independent experiments. Indomethacin was used as a standard. Statistical analysis was performed using the Holm-Sidak multiple comparison. * p < 0.05 when compared to control stimulated with LPS. (1) 3-hydroxy-copalic acid, (2) kaurenoic acid, (3) 3-acetoxy-copalic acid, (4) kolavic acid 15-methyl ester, (5) copalic acid and (6) hardwickiic acid.
Macrophage cells (1 × 10^6 cells/mL) were incubated with different concentrations of diterpene compounds (12.5 to 50 μM), and then stimulated with 1 μg/mL of LPS. The culture supernatants were collected after 24 h of LPS stimulation. The levels of cytokines in the culture media were measured by flow cytometry (BD Cytometric Bead Array—CBA—Mouse Inflammation kit) according to the manufacturer’s instructions.

[10] = target: Lipoxygenase (LOX) (Glycine max, UniProt P08170); experiment: Lipoxygenase inhibition; format: biochemical
Method: (§3) Figure 1 Tyrosinase and lipoxygenase activities of the isolated diterpenes from Copaifera sp. […] 1. 3-hydroxy-copalic acid, 2. kaurenoic acid, 3. 3-acetoxy-copalic acid, 4. kolavic acid15-methyl ester, 5. copalic acid, and 6. hardwickiic acid. Each value is the mean ± S.E. of three independent experiments. Statistical analysis was performed using Holm-Sidak multiple comparisons. * p < 0.05 compared with the negative control.

[11] = system: SKMELL28 (melanoma); experiment: Alamar Blue assay, tumoral cells SKMELL28; format: cell-based; conditions: 72 h, 20 µmol/L
Method: as §1, §2

[12] = system: tyrosinase; experiment: Tyrosinase inhibition test; format: biochemical
Method: The tyrosinase inhibition test was performed at concentrations of 31.25 to 500 µM.
as §3

[13] = system: LOX; set-up: method as in doi:10.1007/s00044-013-0559-7; conditions: read-out: LOX inhibition IC50; cited from earlier work
[14] = system: erythrocyte; experiment: Hemolysis test
Method: The assay for the characterization of hemolytic activity aimed to evaluate the potential of diterpenes on lysis of the cell membrane.
Blood was collected in heparinized-tubes from Wistar rats, and washed three times with saline solution (NaCl 0.85% + CaCl2 10 mM) by centrifugation at 700 g for 10 min. The pellet of erythrocyte was re-suspended in saline solution for preparation of erythrocyte suspension −2% (SE). A total of 100 µL of the samples of diluted diterpenes was added to 96-well microplates in different concentrations (6.25 to 800 µM); 100 µL of SE was then added; and the samples were incubated for 60 min at 37 °C under constant agitation. The release of hemoglobin was determined after centrifugation (700 g for 10 min) by photometric analysis of the supernatant at 540 nm. Complete hemolysis was achieved using 0.2% Triton X-100 yielding the 100% control value.

[15] = LPS-stimulated J774, 12.5 to 50 µM

Lipoxygenase (LOX), sequence (P08170 whole entry): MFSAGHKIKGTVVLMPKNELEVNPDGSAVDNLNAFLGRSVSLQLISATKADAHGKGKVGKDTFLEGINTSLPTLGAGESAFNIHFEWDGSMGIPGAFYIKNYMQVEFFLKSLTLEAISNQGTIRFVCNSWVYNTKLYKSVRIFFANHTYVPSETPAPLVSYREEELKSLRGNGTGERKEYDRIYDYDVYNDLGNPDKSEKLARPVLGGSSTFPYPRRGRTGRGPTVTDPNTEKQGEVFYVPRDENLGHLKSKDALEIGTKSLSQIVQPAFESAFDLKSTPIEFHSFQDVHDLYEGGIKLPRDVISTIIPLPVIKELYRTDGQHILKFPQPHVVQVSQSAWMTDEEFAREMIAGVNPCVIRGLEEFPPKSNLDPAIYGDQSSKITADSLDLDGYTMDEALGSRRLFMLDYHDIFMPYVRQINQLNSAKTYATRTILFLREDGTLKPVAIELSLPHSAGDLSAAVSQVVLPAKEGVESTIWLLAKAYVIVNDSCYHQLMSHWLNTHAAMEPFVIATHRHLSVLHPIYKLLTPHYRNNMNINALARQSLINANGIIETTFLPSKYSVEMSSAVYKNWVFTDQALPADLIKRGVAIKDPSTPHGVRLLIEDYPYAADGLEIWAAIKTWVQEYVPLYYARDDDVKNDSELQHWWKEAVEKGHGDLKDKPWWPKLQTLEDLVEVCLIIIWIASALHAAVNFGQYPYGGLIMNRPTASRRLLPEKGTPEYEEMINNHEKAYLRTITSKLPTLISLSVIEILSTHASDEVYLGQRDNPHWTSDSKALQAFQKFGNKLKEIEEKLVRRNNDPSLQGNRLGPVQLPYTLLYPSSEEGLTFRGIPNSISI

Molecule | Viability inhibition (%) HCT-116 [2] | Viability inhibition (%) MCF7 [3] | Viability inhibition (%) NIHOVCAR [5] | Viability inhibition (%) SF295 [6] | IC50 [7] | IL-10 production (words) [9, 15] | Viability inhibition (%) SKMELL28 [11] | further results
foliol |  |  |  |  |  |  |  | inhibition of TNF-α production [1]: showed inhibitory activity on the production of TNF-α
COC(=O)/C=C(/C)CC[C@@]1(C)[C@H](C)CC[C@@]2(C)C(C(=O)O)=CCC[C@H]12 [kolavic acid 15-methyl ester, Kolavic acid-15-metyl ester] | ≤0.01% | ≤0.01% | ≤0.01% | ≤0.01% | 81.6 ± 2.8 µM | did not induce the production of IL-10 | ≤0.01% | Viability inhibition (%) AGP01 [4]: 17.4 ± 6.7%; inhibition of IL-6 production (words) ([8]; listed as kolavic-15-methyl ester): inhibited the production of IL-6; inhibition at 25 µM [8]: 17.3%; lipoxygenase inhibition ([10]; 200 µM): 89.5% ± 1.2%; lipoxygenase inhibition activity ([10]; conclusions, compared to standard quercetin): high lipoxigenase inhibition activity
O=c1cc(CO)occ1O [Kojic acid, reference compound] |  |  |  |  |  |  |  | tyrosinase inhibition (activity of standard) ([12]; 700 µM): 73.5%
COc1c(C(C)C)cc2c(c1OC)[C@@]13CCC(=O)C(C)(C)[C@@H]1[C@H](OC3=O)C2=O [taxusabietane C] |  |  |  |  |  |  |  | IC50 [13]: 69 ± 0.31 µM
C=C1CCC2C(C)(C)[C@H](O)CC[C@@]2(C)[C@@H]1CC/C(C)=C\C(=O)O (some centres unmarked) [3-hydroxy-copalic acid, 3-Hydroxy-copalic acid] | 4.7 ± 5.6% | ≤0.01% | ≤0.01% | 20.5 ± 5.0% |  | promoted the induction of IL-10 independent of the dose tested | ≤0.01% | Viability inhibition (%) AGP01 [4]: 8.5 ± 13.1%; Viability inhibition (%) SF295 ([6]; listed as 3-HO-copalic): around 20%; IL-10 production (words) ([9]; LPS-stimulated J774, 12.5 to 50 µM, listed as 3-hydroxy-copalic): induced IL-10 production; also recorded: induced production of interleukin-10; tyrosinase inhibition ([12]; 250 µM): 63.9% and 64% ± 1.5%; tyrosinase activity relative to standard kojic acid ([12]; 63.9% at 250 µM vs 73.5% at 700 µM): three times more active than the standard; tyrosinase inhibitory activity ([12]; conclusions): higher inhibitory activity; IC50 ([12]; tested at 31.25 to 500 µM): 256 µM
COc1c(C(C)C)cc2c(c1O)C=C1C=CC(=O)C(C)(C)C1CC2=O (centres unmarked) [taxamairin F] |  |  |  |  |  |  |  | IC50 [13]: 73 ± 0.14 µM
C=C1CCC2C(C)(C)[C@H](OC(C)=O)CC[C@@]2(C)[C@@H]1CCC(C)=CC(=O)O (stereo in doubt) [3-acetoxy-copalic acid, 3-Acetoxy-copalic acid] | ≤0.01% | ≤0.01% | 2.0 ± 3.5% | 17.7 ± 0.9% |  | increased IL-10 production; also recorded: induced IL-10 production | ≤0.01% | Viability inhibition (%) AGP01 [4]: 13.1 ± 5.3%; Viability inhibition (%) SF295 ([6]; listed as 3-AcO-copalic): around 20%; inhibition of IL-6 production (words) [8]: inhibited the production of IL-6; inhibition at 25 µM [8]: 23.8%; IL-10 production (words) ([9]; 12.5 µM and 25 µM): induced the production of IL-10; IL-10 production (words) ([9]; 50 µM): this induction decreased
linearol acid |  |  |  |  |  |  |  | inhibition of TNF-α production [1]: showed inhibitory activity on the production of TNF-α
C=C1CC[C@@H]2C(C)(C)CCC[C@@]2(C)[C@@H]1CC/C(C)=C/C(=O)O [copalic acid, Copalic acid] | ≤0.01% | ≤0.01% | ≤0.01% | ≤0.01% | 57.4 ± 0.2 µM | increased IL-10 production; also recorded: induced IL-10 production; also recorded: induced production of interleukin-10 | ≤0.01% | hemolytic activity ([14]; 100 µM (abstract)): 38.4%; hemolytic activity ([14]; 100 mM (so in the source)): 38.4%; inhibition at 100 µM ([7]; J774, 100 µM, LPS-activated macrophages): 98.5%; inhibition of IL-6 production (words) [8]: inhibited the production of IL-6; inhibition at 25 µM [8]: 4.2%
COc1ccc2c(c1)c(CC(=O)O)c(C)n2C(=O)c1ccc(Cl)cc1 [indomethacin, reference compound] |  |  |  |  | 32 ± 3.5 µM |  |  | 
C[C@@H]1CC[C@@]2(C)C(C(=O)O)=CCC[C@@H]2[C@@]1(C)CCc1ccoc1 [hardwickiic acid, Hardwickiic acid] | ≤0.01% | ≤0.01% | ≤0.01% | ≤0.01% | 67.4 ± 1.3 µM | did not induce the production of IL-10 | ≤0.01% | 

Source: PMC6272497, “Biological Activities and Cytotoxicity of Diterpenes from Copaifera spp. Oleoresins” (Molecules, 2015)
